In patent US20220304979A1, “METHODS OF REDUCING DISEASE FLARES” (Chinook Therapeutics, Inc., priority 2019, published 2022):

Columns and labels:
[1] = test system: primary human renal mesangial cells (HRMCs); experiment: proliferation (BrdU) of mesangial cells stimulated with IgA-containing immune complexes; format: cell-based; settings: immune complexes purified from three patients with IgA nephropathy
Description: Primary human mesangial cells in a culture were stimulated with pathogenic galactose deficient (Gd)-IgA containing immune complexes isolated from human IgA nephropathy patients. […] Specifically, pathogenic IgA-containing immune complexes were isolated from serum from either IgA nephropathy patients or age, gender and ethnicity-matched healthy individuals. Frozen serum was purchased from BioIVT and IgA-containing immune complexes were purified using jacalin affinity chromatography. […] Purified IgA-containing immune complexes were concentrated using a 100K Amicon filtration unit and the amount of total IgA and galactose-deficient IgA (Gd-IgA) in the immune complexes was measured by ELISA (ThermoFisher and IBL America, respectively). […] See, e.g., Novak et. al., Kidney International, 67, pp. 504-516; 2005; Novak et. al., Nephrol. Dial. Transplant, 26, pp. 3451-3457; 2011; Liang et. al., Cell Physiol. Biochem., 36, pp. 1793-1808; 2015; Nguyen et. al., Clin. Kidney 1, 12 (2), pp, 232-238; 2019.

g-ddY mice = experiment: albuminuria (UACR) in g-ddY mouse model of IgA nephropathy; format: in vivo; settings: for albuminuria compared to baseline: approximately 5 days
Description: The grouped ddY (g-ddY) mouse is a spontaneous model of early-onset IgA nephropathy characterized by IgA immune complex deposition in the mesangium of the kidney, leading to significant proteinuria, glomerular hypercellularity, mesangioproliferative glomerular lesions, glomerular sclerosis and reduced kidney function, all hallmarks of human IgA nephropathy (J Am Soc Nephrol 23: 1364-1374, 2012). Consistent with human IgA nephropathy, the mesangial IgA deposits in the g-ddY mouse are also accompanied by deposition of IgG and complement C3.

[2] = test system: kidney tissue of g-ddY mice; experiment: RNA-seq differential gene expression in kidney tissue of g-ddY mice; format: in vivo, mouse
Description: RNA isolation and sequencing libraries were generated using standard protocols. Sequencing was performed using an Illumina NextSeq500 using manufacturer's instructions with a read length of 75 bp and a read depth of 30 million. Raw data was assembled to FASTQ files. Following QC analysis, high quality sequencing reads (e.g., reads with a Phred quality score >36) were aligned to the mouse reference genome (GRCm38-mm10) using the default parameters of the align algorithm and transcript count tables of each library was generated using the default parameters of the featureCounts algorithm of the RSubread package (Liao […], Shi W, 2019). High quality sequencing reads mapped to 27,129 genes. Following additional QC of low count filtering (i.e. transcripts <10 counts across all samples), 16,207 genes were identified and used for further analysis. The remaining sequencing read counts of the included 16,207 genes were normalized to library size, log-transformed, and were quantified as counts per million (CPM). Select RNA-seq counts were validated using qPCR. Sequencing read counts (CPM) were used for identification of differential gene expression between specified populations using the quasi-likelihood methodology of the edgeR package. […] MA plots were generated using edgeR. Heatmaps and other plots were generated using the gplots and ggplot2 package.

[3] = test system: kidney tissue of g-ddY mice; experiment: Ingenuity Pathway Analysis (IPA) canonical pathways of kidney RNA-seq, g-ddY mice; format: in vivo, mouse; settings: 30 mg/kg/day
[4] = patients with diabetic kidney disease (DKD); cited from earlier work
[5] = atrasentan 10 mg/kg/day vs 0 mg/kg/day (control), g-ddY mice
[6] = atrasentan 20 mg/kg/day vs 0 mg/kg/day (control), g-ddY mice
[7] = atrasentan 30 mg/kg/day vs 0 mg/kg/day (control), g-ddY mice

CCCCN(CCCC)C(=O)CN1C[C@H](c2ccc3c(c2)OCO3)[C@@H](C(=O)O)[C@@H]1c1ccc(OC)cc1 [atrasentan, (2R,3R,4S)-4-(1,3-benzodioxol-5-yl)-1-[2-(dibutylamino)-2-oxoethyl]-2-(4-methoxyphenyl)pyrrolidine-3-carboxylic acid]
hyperproliferation of HRMCs induced by IgA containing immune complexes [1]: significantly attenuated the hyperproliferation
effect to reduce UACR from baseline compared to control group (g-ddY mice; 10 mg/kg/day): not significant
effect to reduce UACR from baseline compared to control group (g-ddY mice; 20 mg/kg/day, P=0.0498, un-paired t-test): statistically significant compared to the control group
albuminuria compared to baseline (g-ddY mice; 20 mg/kg/day, just failed statistical significance (P=0.0593)): reduced from baseline to a similar extent
effect to reduce UACR from baseline compared to control group (g-ddY mice; 30 mg/kg/day, P=0.029): statistically significant compared to the control group
albuminuria compared to baseline (g-ddY mice; 30 mg/kg/day, paired t-test): significantly (P=0.0002, paired two-sided t-test) reduced albuminuria from baseline
ET1 gene signature genes downregulated versus untreated control ([2]; 10 mg/kg/day): Grk5, Mllt3, Klf2, Pparg, Hgf, Edn1, Fos, Ptgs2, and IL-1b
ET1 gene signature genes upregulated versus untreated control ([2]; 10 mg/kg/day): Ccnd1, Ppara, Agt, Map2k2 and Hoxa9
ET1 gene signature genes downregulated versus untreated control ([2]; 20 mg/kg/day): Nfatc1, Grk5, Klf2, Cav1, Pparg, Itga5, Myc, Ednra, Sell, Hgf, Mmp2, Edn1, Syk, Fos, and IL-1b
ET1 gene signature genes upregulated versus untreated control ([2]; 20 mg/kg/day): Ccdn1, Cat, Ppara, Map2k2, Hoxa9, Agt, and Egfr
ET1 gene signature genes downregulated versus untreated control ([2]; 30 mg/kg/day): Ednrb, Myc, Mllt3, Hdac7, Ednra, Itga5, Grk5, Pparg, Klf2, Hgf, Mmp2, Sell, Sphk1, Fos, Syk, Edn1, and IL-1b
ET1 gene signature genes upregulated versus untreated control ([2]; 30 mg/kg/day): Ccnd1, Agt, Cat, Map2k2, Hoxa9, and Ppara
gene expression of Ednra and Ednrb ([2]; 30 mg/kg/day): downregulated
gene expression of ET1 (End1) ([2]; all three doses (10, 20, 30 mg/kg/day)): downregulated
logFC Ahnak gene expression [2, 5]: −0.5756
logFC Akap12 gene expression [2, 5]: −0.2687
logFC Akt3 gene expression [2, 5]: −0.3863
logFC Aldob gene expression [2, 5]: 0.4194
logFC Ankrd12 gene expression [2, 5]: −0.2824
logFC C7 gene expression [2, 5]: −0.7767
logFC Caldl gene expression [2, 5]: −0.3719
logFC Cblb gene expression [2, 5]: −0.082
logFC Ebfl gene expression [2, 5]: −0.3301
logFC Epb4112 gene expression [2, 5]: −0.4375
logFC Etsl gene expression [2, 5]: −0.2198
logFC Fchsd2 gene expression [2, 5]: −0.2564
logFC Frmd4a gene expression [2, 5]: −0.2838
logFC Gata3 gene expression [2, 5]: −0.4822
logFC Gpx3 gene expression [2, 5]: 0.6802
logFC Igfbp7 gene expression [2, 5]: 0.2052
logFC Lama2 gene expression [2, 5]: −0.2955
logFC Maml2 gene expression [2, 5]: −0.2318
logFC Mef2c gene expression [2, 5]: −0.6217
logFC Meisl gene expression [2, 5]: −0.2507
logFC Myh9 gene expression [2, 5]: −0.2094
logFC Myole gene expression [2, 5]: −0.2349
logFC Nbea gene expression [2, 5]: −0.2819
logFC Nr4a1 gene expression [2, 5]: −1.525
logFC Piezo2 gene expression [2, 5]: −0.4078
logFC Postn gene expression [2, 5]: −1.385
logFC Pparg gene expression [2, 5]: −0.6129
logFC Ppp1r12a gene expression [2, 5]: −0.1995
logFC Prkgl gene expression [2, 5]: −0.2187
logFC Psd3 gene expression [2, 5]: −0.3544
logFC Ptprm gene expression [2, 5]: −0.2614
logFC Rapgef5 gene expression [2, 5]: −0.2732
logFC Raphl gene expression [2, 5]: −0.2965
logFC Rbms3 gene expression [2, 5]: −0.5749
logFC Robol gene expression [2, 5]: −0.4803
logFC Stard13 gene expression [2, 5]: −0.7224
logFC Tacc1 gene expression [2, 5]: −0.2449
logFC Tcf4 gene expression [2, 5]: −0.2176
logFC Tjpl gene expression [2, 5]: −0.2489
logFC Tns3 gene expression [2, 5]: −0.2638
logFC Unc5c gene expression [2, 5]: 0.5618
logFC Utrn gene expression [2, 5]: −0.49
logFC Zeb2 gene expression [2, 5]: −0.5638
logFC Ahnak gene expression [2, 6]: −0.7128
logFC Akap12 gene expression [2, 6]: −0.5404
logFC Akt3 gene expression [2, 6]: −0.4673
logFC Aldob gene expression [2, 6]: 0.4923
logFC Ankrd12 gene expression [2, 6]: −0.2463
logFC C7 gene expression [2, 6]: −1.277
logFC Caldl gene expression [2, 6]: −0.5361
logFC Cblb gene expression [2, 6]: −0.2068
logFC Ebfl gene expression [2, 6]: −0.3512
logFC Epb4112 gene expression [2, 6]: −0.6149
logFC Etsl gene expression [2, 6]: −0.3065
logFC Fchsd2 gene expression [2, 6]: −0.1882
logFC Frmd4a gene expression [2, 6]: −0.3955
logFC Gata3 gene expression [2, 6]: −0.4924
logFC Gpx3 gene expression [2, 6]: 0.71
logFC Igfbp7 gene expression [2, 6]: 0.1088
logFC Lama2 gene expression [2, 6]: −0.4437
logFC Maml2 gene expression [2, 6]: −0.2311
logFC Mef2c gene expression [2, 6]: −0.6302
logFC Meisl gene expression [2, 6]: −0.3593
logFC Myh9 gene expression [2, 6]: −0.4543
logFC Myole gene expression [2, 6]: −0.292
logFC Nbea gene expression [2, 6]: −0.1933
logFC Piezo2 gene expression [2, 6]: −0.6148
logFC Postn gene expression [2, 6]: −2.293
logFC Pparg gene expression [2, 6]: −0.5616
logFC Ppp1r12a gene expression [2, 6]: −0.2135
logFC Prkgl gene expression [2, 6]: −0.328
logFC Psd3 gene expression [2, 6]: −0.5227
logFC Ptprm gene expression [2, 6]: −0.2678
logFC Rapgef5 gene expression [2, 6]: -0.3804
logFC Raphl gene expression [2, 6]: −0.3852
logFC Rbms3 gene expression [2, 6]: −0.7192
logFC Robol gene expression [2, 6]: −0.7261
logFC Stard13 gene expression [2, 6]: −0.6367
logFC Tacc1 gene expression [2, 6]: −0.3693
logFC Tcf4 gene expression [2, 6]: −0.224
logFC Tjpl gene expression [2, 6]: −0.3054
logFC Tns3 gene expression [2, 6]: −0.3043
logFC Unc5c gene expression [2, 6]: 0.3685
logFC Utrn gene expression [2, 6]: −0.5143
logFC Zeb2 gene expression [2, 6]: −0.6492
logFC Ahnak gene expression [2, 7]: −1.013
logFC Akap12 gene expression [2, 7]: −0.8211
logFC Akt3 gene expression [2, 7]: −0.4843
logFC Aldob gene expression [2, 7]: 0.748
logFC Ankrd12 gene expression [2, 7]: −0.4726
logFC C7 gene expression [2, 7]: −1.079
logFC Caldl gene expression [2, 7]: −0.506
logFC Cblb gene expression [2, 7]: −0.4288
logFC Ebfl gene expression [2, 7]: −0.4506
logFC Epb4112 gene expression [2, 7]: −0.7021
logFC Etsl gene expression [2, 7]: −0.3379
logFC Fchsd2 gene expression [2, 7]: −0.3772
logFC Frmd4a gene expression [2, 7]: −0.5742
logFC Gata3 gene expression [2, 7]: −0.5216
logFC Gpx3 gene expression [2, 7]: 1.122
logFC Igfbp7 gene expression [2, 7]: 0.4259
logFC Lama2 gene expression [2, 7]: −0.4895
logFC Maml2 gene expression [2, 7]: −0.4441
logFC Mef2c gene expression [2, 7]: −0.6869
logFC Meisl gene expression [2, 7]: −0.4934
logFC Myh9 gene expression [2, 7]: −0.6171
logFC Myole gene expression [2, 7]: −0.4177
logFC Nbea gene expression [2, 7]: −0.432
logFC Piezo2 gene expression [2, 7]: −0.8237
logFC Postn gene expression [2, 7]: −1.247
logFC Pparg gene expression [2, 7]: −0.6781
logFC Ppp1r12a gene expression [2, 7]: −0.3826
logFC Prkgl gene expression [2, 7]: −0.6356
logFC Psd3 gene expression [2, 7]: −0.5843
logFC Ptprm gene expression [2, 7]: −0.5453
logFC Rapgef5 gene expression [2, 7]: −0.4225
logFC Raphl gene expression [2, 7]: −0.5358
logFC Rbms3 gene expression [2, 7]: −0.8895
logFC Robol gene expression [2, 7]: −0.6009
logFC Stard13 gene expression [2, 7]: −0.8466
logFC Tacc1 gene expression [2, 7]: −0.4924
logFC Tcf4 gene expression [2, 7]: −0.3055
logFC Tjpl gene expression [2, 7]: −0.3989
logFC Tns3 gene expression [2, 7]: −0.4522
logFC Unc5c gene expression [2, 7]: 0.9517
logFC Utrn gene expression [2, 7]: −0.7697
logFC Zeb2 gene expression [2, 7]: −0.6778
signaling pathways by IPA analysis [3]: reduced NF-κB signaling, IL-6 pathway signaling (e.g., STAT3), and PDGF signaling
risk of renal events (doubling of serum creatinine or end-stage kidney disease) [4]: significantly reducing the risk of renal events
